Test results published in patent publication US20060069132A1, “Azolecarboxamide herbicides” (priority 2004, published 2006).

Legend:
lambsquarters = assay: Test C pre-/postemergence herbicide test; assay type: in vivo, Chenopodium album; details: preemergence
Procedure, shortened: (§1)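 Pre/post spray; non-phytotoxic solvent + surfactant. Post-timing 1–4 leaves, 2–18 cm. Read-out: visual % control vs untreated, day 12–14, greenhouse.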

barnyardgrass = assay: Test C flooded paddy test; assay type: in vivo, Echinochloa crus-galli; details: for Plant response rating, Barnyardgrass: 500 g ai/ha, visual rating after 12 to 14 days
Procedure, shortened: (§2)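 Postemergence sprays applied to plants 2 to 18 cm tall (1- to 4-leaf stage); paddy species grown to 2-leaf stage under flooding. After 12 to 14 days in greenhouse, visual rating versus untreated controls on 0–100 scale (0 no effect, 100 complete control).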

goosegrass = assay: Test C pre-/postemergence herbicide test; assay type: in vivo, Eleusine indica; details: preemergence
Procedure, shortened: as §1

rice [1] = assay: Test C flooded paddy test; assay type: in vivo, Oryza sativa; details: for Plant response rating, Rice: 500 g ai/ha, visual rating after 12 to 14 days
Procedure, shortened: as §2

large crabgrass = assay: Test A pre-/postemergence herbicide test; assay type: in vivo, Digitaria sanguinalis
Procedure, shortened: (§3)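 Greenhouse injury scoring (0–100, complete control = 100) at approximately ten days follows simultaneous pre- and postemergence application. Soil received a directed spray after seeding; seedlings of 2–10 cm at the one- to two-leaf stage were sprayed to runoff.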

redroot pigweed = assay: Test A pre-/postemergence herbicide test; assay type: in vivo, Amaranthus retroflexus
Procedure, shortened: as §3

giant foxtail = assay: Test C pre-/postemergence herbicide test; assay type: in vivo, Setaria faberi; details: preemergence
Procedure, shortened: as §1

rice [2] = assay: Test B pre-/postemergence herbicide test; assay type: in vivo, Oryza sativa; details: preemergence; for Rice plant response rating (0 to 100 scale): 125 g ai/ha; for Plant response rating, Rice: 500 g ai/ha
Procedure, shortened: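 Formulation: non-phytotoxic solvent mix with surfactant. Timing: preemergence on seed and postemergence on 2–18 cm plants, applied concurrently. Readout after 13–15 d greenhouse: visual 0–100 control rating against controls.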

pigweed = assay: Test C pre-/postemergence herbicide test; assay type: in vivo, Amaranthus retroflexus; details: preemergence
Procedure, shortened: as §1

[3] = 125 g ai/ha, scale 0 (no effect) to 100 (complete control), visual, 12 to 14 days
[4] = 500 g ai/ha, scale 0 to 100 (0 no effect, 100 complete control), visual, 12 to 14 days
[5] = 62 g ai/ha, scale 0 to 100 (0 no effect, 100 complete control)
[6] = 125 g ai/ha, scale 0 to 100 (0 no effect, 100 complete control)
[7] = 250 g ai/ha, scale of 0 to 100, 0 is no effect, 100 is complete control
[8] = scale 0 to 100 (0 no effect, 100 complete control)
[9] = Postemergence, 500 g ai/ha, 0 to 100 scale, 0 no effect, 100 complete control
[10] = Postemergence, 2000 g ai/ha, 0 to 100 scale, 0 no effect, 100 complete control
[11] = Preemergence, 2000 g ai/ha, visual rating, 0 to 100 scale (0 no effect, 100 complete control)
[12] = preemergence, 500 g ai/ha, visual injury, 0 to 100 scale (0 no effect, 100 complete control)
[13] = 0 = no effect, 100 = complete control

Row | SMILES | Plant response rating, Lambsquarters (lambsquarters; 62 g ai/ha, scale 0 to 100) | Plant response rating, Lambsquarters (lambsquarters; [3]) | Plant response rating, Lambsquarters (lambsquarters; 250 g ai/ha, scale 0-100) | Plant response rating, Lambsquarters (lambsquarters; [4]) | Barnyardgrass plant response rating (barnyardgrass; [5]) | Barnyardgrass plant response rating (barnyardgrass; [6]) | Barnyardgrass plant response rating (barnyardgrass; [7]) | Plant response rating, Barnyardgrass (barnyardgrass; [8]) | Plant response rating, Goosegrass (goosegrass; 62 g ai/ha, scale 0 to 100) | Plant response rating, Goosegrass (goosegrass; [3]) | Plant response rating, Goosegrass (goosegrass; 250 g ai/ha, scale 0-100) | Plant response rating, Goosegrass (goosegrass; [4]) | Rice plant response rating (rice [1]; [5]) | Rice plant response rating (rice [1]; [6]) | Rice plant response rating (rice [1]; [7]) | Plant response rating, Rice (rice [1]; [8]) | Crabgrass, Large plant response rating (large crabgrass; [9]) | Plant response rating, Crabgrass, Large (large crabgrass; [10]) | Crabgrass, Large plant response rating (large crabgrass; [11]) | Crabgrass, Large plant response rating (large crabgrass; [12]) | also measured
1 | CCNC(=O)c1cccc(NC(=O)c2sc(C(C)(C)C)nc2CC)c1 [Compound 210] | 100 | 100 | 100 | 100 | 50 | 70 | 85 | 85 | 50 | 80 | 95 | 95 | 35 | 55 | 75 | 75 | 40 | 65 | 100 | 90 | Pigweed plant response rating (redroot pigweed; [9]): 60; Plant response rating, Pigweed (redroot pigweed; [10]): 80; Pigweed plant response rating (redroot pigweed; [11]): 100; Pigweed plant response rating (redroot pigweed; [12]): 100; Plant response rating, Foxtail, Giant (giant foxtail; 62 g ai/ha, scale 0 to 100): 0; Plant response rating, Foxtail, Giant (giant foxtail; [3]): 10; Plant response rating, Foxtail, Giant (giant foxtail; 250 g ai/ha, scale 0-100): 10; Plant response rating, Foxtail, Giant (giant foxtail; [4]): 60; Rice plant response rating (0 to 100 scale) (rice [2]; [13]): 60; Plant response rating, Rice (rice [2]; visual rating 0-100, 0 no effect, 100 complete control): 80; Plant response rating, Pigweed (pigweed; 62 g ai/ha, scale 0 to 100): 100; Plant response rating, Pigweed (pigweed; [3]): 100; Plant response rating, Pigweed (pigweed; 250 g ai/ha, scale 0-100): 100; Plant response rating, Pigweed (pigweed; [4]): 100
2 | CCc1nn(C(C)(C)C)cc1C(=O)Nc1cc(C(=O)N(CC)CC)ccc1F [Compound 223] | 95 | 100 | 100 | 100 | 0 | 0 | 0 | 45 | 60 | 80 | 80 | 100 | 0 | 0 | 45 | 75 | 20 | 25 | 90 | 90 | Pigweed plant response rating (redroot pigweed; [9]): 50; Plant response rating, Pigweed (redroot pigweed; [10]): 55; Pigweed plant response rating (redroot pigweed; [11]): 90; Pigweed plant response rating (redroot pigweed; [12]): 95; Plant response rating, Foxtail, Giant (giant foxtail; 62 g ai/ha, scale 0 to 100): 40; Plant response rating, Foxtail, Giant (giant foxtail; [3]): 70; Plant response rating, Foxtail, Giant (giant foxtail; 250 g ai/ha, scale 0-100): 100; Plant response rating, Foxtail, Giant (giant foxtail; [4]): 100; Rice plant response rating (0 to 100 scale) (rice [2]; [13]): 0; Plant response rating, Rice (rice [2]; visual rating, 0 = no effect, 100 = complete control): 30; Plant response rating, Pigweed (pigweed; 62 g ai/ha, scale 0 to 100): 100; Plant response rating, Pigweed (pigweed; [3]): 100; Plant response rating, Pigweed (pigweed; 250 g ai/ha, scale 0-100): 100; Plant response rating, Pigweed (pigweed; [4]): 100
